Data as given in patent US20170312296A1, “AGENTS FOR KILLING HIV-1-INFECTED CELLS AND APPLICATION THEREOF” (KAGOSHIMA UNIVERSITY, priority 2015, published 2017).

Assays:
[1] = test system: HIV-1-infected human peripheral blood mononuclear cells; assay: Cell viability (dye method) in HIV-1 chronically infected cell model derived from human peripheral blood mononuclear cells; details: for effect on the cell death-inducing effect specific for HIV-1-infected cells due to entinostat: Example 2: combination with entinostat 0.5 μM after protease inhibitor pretreatment; for cell death-inducing effect specific for HIV-1-infected cells: Example 4: treatment after 11 days culture
Procedure: Healthy donor-derived peripheral blood mononuclear cells were infected with HIV-1 strain IIIB in vitro to prepare an HIV-1 chronically infected cell model derived from human peripheral blood mononuclear cells, and a combination effect of an HIV-1 protease inhibitor (NFV or SQV) and an HDAC inhibitor (entinostat or vorinostat) was examined.
After HIV-1 infection or pseudo-infection (=mock-infection), the cells were cultured for 7 days and treated with various concentrations of each HIV-1 protease inhibitor for 3 days. For 3 days thereafter, treatment was carried out using combinations of each HIV-1 protease inhibitor having the same concentration and each HDAC inhibitor. The cell viability in each sample was measured by a dye method, and the amount of HIV-1 produced, by an ELISA method (HIV-1 p24 Antigen ELISA). […]

[2] = test system: HIV-1 strain IIIB; assay: Amount of HIV-1 produced (HIV-1 p24 Antigen ELISA) in HIV-1-infected human peripheral blood mononuclear cells; format: cell-based
[3] = test system: HIV-1 strain IIIB; assay: Amount of HIV-1 produced (HIV-1 p24 Antigen ELISA) in HIV-1-infected CD4T; format: cell-based
Source text: (§1) In this Example, it was examined whether combined use with an HIV-1 reverse transcriptase inhibitor provided the same effect, by conducting a combination experiment with entinostat according to the experimental procedure shown in FIG. 13 using tenofovir (TFV) as one of the clinically most used HIV-1 reverse transcriptase inhibitors.
as §1, with “Then,” for “In this Example,”, “integrase” for “reverse transcriptase”, “effect” for “effect,”, “15” for “13”, “dolutegravir (DTG)” for “tenofovir (TFV)”

[4] = test system: HIV-1-infected CD4-positive T lymphocytes (CD4T); assay: Cell viability (dye method) in CD4T-derived HIV-1 chronically infected cell model; format: cell-based, human; details: for effect on the cell death-inducing effect specific for HIV-1-infected cells due to entinostat: Example 6, CD4T, combination with entinostat; for cell death-inducing effect specific for HIV-1-infected cells in CD4T: Example 5: treated 4 days from day 3 or from day 7 after infection
Procedure: In this Example, the action of various HDAC inhibitors on HIV-1-infected CD4T was analyzed using CD4T purified from human peripheral blood mononuclear cells.
as §1
as §1, with “Then,” for “In this Example,”, “integrase” for “reverse transcriptase”, “effect” for “effect,”, “15” for “13”, “dolutegravir (DTG)” for “tenofovir (TFV)”

[5] = test system: Cleaved PARP; assay: Western blot of cleaved PARP in CD4T; format: cell-based, human
Procedure: (§2) The extracted protein was analyzed by a Western blot method.
(§3) The expression of each of Cleaved caspase-3 and Cleaved PARP was corrected with the expression of β-tublin as an internal control to make a graph.

[6] = test system: Cleaved caspase-3; assay: Western blot of cleaved caspase-3 in CD4T; format: cell-based, human; details: entinostat 0.5 μM
Procedure: as §2, §3

[7] = test system: HIV-1 latently infected cells (reservoir cells); details: literature report (Johnstone 2002); cited from earlier work
[8] = test system: mock-infected CD4-positive T lymphocytes (CD4T); assay: Cell viability (dye method) of mock-infected CD4T; format: cell-based, human; details: Example 5, CD4T
[9] = test system: mock-infected human peripheral blood mononuclear cells; assay: Cell viability (dye method) of mock-infected human peripheral blood mononuclear cells; format: cell-based; details: Example 4
Procedure: After HIV-1 infection or pseudo-infection (=mock-infection), the cells were cultured for 7 days and treated with various concentrations of each HIV-1 protease inhibitor for 3 days. For 3 days thereafter, treatment was carried out using combinations of each HIV-1 protease inhibitor having the same concentration and each HDAC inhibitor. The cell viability in each sample was measured by a dye method, and the amount of HIV-1 produced, by an ELISA method (HIV-1 p24 Antigen ELISA).
After HIV-1 infection or pseudo-infection (=mock-infection), culture was performed for 11 days, and for 3 days from day 12, the combined administration of each HIV-1 protease inhibitor having various concentrations and the HDAC inhibitor was carried out. The cell viability in each sample was measured by a dye method, and the amount of HIV-1 produced, by an ELISA method (HIV-1 p24 Antigen ELISA).
After HIV-1 infection or pseudo-infection (=mock-infection), the cells were cultured for 11 days and treated with various concentrations of each HDAC inhibitor. The cell viability in each sample was measured by a dye method, and the amount of HIV-1 produced, by an ELISA method (HIV-1 p24 Antigen ELISA).

[10] = Example 2: protease inhibitor pretreatment 3 days, then combination 3 days, in the presence of entinostat of 0.5 μM
[11] = Example 3: simultaneous administration with entinostat, no pretreatment, 3 days from day 12

CC(C)(C)NC(=O)[C@@H]1C[C@@H]2CCCC[C@@H]2CN1C[C@@H](O)[C@H](Cc1ccccc1)NC(=O)[C@H](CC(N)=O)NC(=O)c1ccc2ccccc2n1 [SQV, saquinavir]
effect on the cell death-inducing effect specific for HIV-1-infected cells due to entinostat [1]: did not affect | HIV-1 production [2, 10]: concentration-dependently suppressed HIV-1 production

C[C@@H]1CCO[C@H]2Cn3cc(C(=O)NCc4ccc(F)cc4F)c(=O)c(O)c3C(=O)N12 [dolutegravir]
anti-HIV-1 effect ([3]; Example 6, CD4T, in the absence of entinostat): hardly had an anti-HIV-1 effect | effect on the cell death-inducing effect specific for HIV-1-infected cells due to entinostat [4]: did not affect

Nc1ccccc1NC(=O)c1ccc(CNC(=O)OCc2cccnc2)cc1 [entinostat]
cell death-inducing effect specific for HIV-1-infected cells [1]: cell death-inducing effect specific for HIV-1-infected cells | viability at 0.5 µM ([1]; Homo sapiens, PBMC, read-out: cell viability of HIV-1-infected cells relative to cell viability of pseudo-infected (non-infected) cells): ~50% | cleaved PARP expression ([5]; entinostat 0.5 μM, 24 hours, pseudo-infected CD4T and HIV-1-infected CD4T): increase in the cleaved PARP was observed | expression of PARP (cleaved) ([5]; entinostat, 48 hours, HIV-1-infected CD4T): markedly increased | effect of the HDAC inhibitor on HIV-1 production in infected cells ([2]; entinostat alone): activates HIV-1 production | increase of cleaved caspase-3 in HIV-1-infected CD4T versus pseudo-infected CD4T ([6]; 24 hours): more marked | activated form of caspase-3 (cleaved caspase-3) expression ([6]; 24 hours, pseudo-infected CD4T (Mock) and HIV-1-infected CD4T (HIV)): increase | increase in activated form of caspase-3 ([6]; 48 hours, pseudo-infected CD4T and HIV-1-infected CD4T): not observed | cell death-inducing effect specific for HIV-1-infected cells in CD4T [4]: cell death-inducing effect specific for HIV-1-infected cells | activation of HIV-1 latently infected cells to induce HIV-1 production [7]: activate HIV-1 latently infected cells

Cc1c(O)cccc1C(=O)N[C@@H](CSc1ccccc1)[C@H](O)CN1C[C@H]2CCCC[C@H]2C[C@H]1C(=O)NC(C)(C)C [nelfinavir]
effect on the cell death-inducing effect specific for HIV-1-infected cells due to entinostat [1]: did not affect | HIV-1 production [2, 10]: concentration-dependently suppressed HIV-1 production | HIV-1 production [2, 11]: suppressing HIV-1 production

C[C@H](Cn1cnc2c(N)ncnc21)OCP(=O)(O)O [tenofovir]
concentration at which HIV-1 production was still not suppressed ([3]; Example 6, CD4T, irrespective of the presence or absence of entinostat): > 1 µM | effect on the cell death-inducing effect specific for HIV-1-infected cells due to entinostat [4]: did not affect

CC(C)CN(C[C@@H](O)[C@H](Cc1ccccc1)NC(=O)O[C@H]1CO[C@H]2OCC[C@H]21)S(=O)(=O)c1ccc(N)cc1 [darunavir]
activation of HIV-1 production by entinostat ([3]; Example 6: 100 nM, administered simultaneously with entinostat, CD4T): strongly suppressing | concentration that strongly suppressed the increase in HIV-1 production due to entinostat ([2]; Example 3: simultaneous administration with entinostat): ≥ 100 nM | HIV-1 production [2, 11]: suppressing HIV-1 production

O=C(CCCCCCC(=O)Nc1ccccc1)NO [vorinostat]
cell death-inducing effect specific for HIV-1-infected cells in CD4T [4]: no cell death-inducing effect specific for HIV-1-infected cells | activation of HIV-1 latently infected cells to induce HIV-1 production [7]: activate HIV-1 latently infected cells

chidamide
cell death-inducing effect specific for HIV-1-infected cells compared with entinostat ([1]; Example 4): weaker cell death-inducing effect | cell death-inducing effect specific for HIV-1-infected cells [1]: cell death-inducing effect specific for HIV-1-infected cells | toxicity to mock-infected cells compared to entinostat [8]: less toxic | toxicity to mock-infected cells compared with entinostat [9]: less toxic | cell death-inducing effect against infected cells compared to entinostat ([4]; Example 5, CD4T): weaker cell death-inducing effect | cell death-inducing effect specific for HIV-1-infected cells in CD4T [4]: cell death-inducing effect specific for HIV-1-infected cells
